The source made the active and inactive calls. No rule for the calls is given here.
Test system: CCRIS mutagenicity, Ames/micronucleus/aberration tests
Experiment: CCRIS mutagenicity studies
[1] = Test System: AMES SALMONELLA TYPHIMURIUM, Strain/Indicator: TA100, Metabolic Activation: NONE, Method: STANDARD PLATE
[2] = Test System: AMES SALMONELLA TYPHIMURIUM, Strain/Indicator: TA98, Metabolic Activation: NONE, Method: STANDARD PLATE
[3] = Test System: AMES SALMONELLA TYPHIMURIUM, Strain/Indicator: TA98, Metabolic Activation: RAT, LIVER, S-9, AROCLOR 1254, Method: STANDARD PLATE
[4] = Test System: AMES SALMONELLA TYPHIMURIUM, Strain/Indicator: TA100, Metabolic Activation: RAT, LIVER, S-9, AROCLOR 1254, Method: STANDARD PLATE
[5] = Test System: AMES SALMONELLA TYPHIMURIUM, Strain/Indicator: TA1537, Metabolic Activation: NONE, Method: STANDARD PLATE
[6] = Test System: AMES SALMONELLA TYPHIMURIUM, Strain/Indicator: TA1538, Metabolic Activation: NONE, Method: STANDARD PLATE

In the case of Nc1cccc([N+](=O)[O-])c1N, the mutagenic call (Test System: AMES SALMONELLA TYPHIMURIUM, Strain/Indicator: TA98(NR), Metabolic Activation: NONE, Method: PREINCUBATION) is reported as “active; positive”, the mutagenic call (Test System: AMES SALMONELLA TYPHIMURIUM, Strain/Indicator: TA98(NR), Metabolic Activation: RAT, LIVER, S-9, AROCLOR 1254, Method: PREINCUBATION) is reported as “active; positive” and the mutagenic call (Test System: AMES SALMONELLA TYPHIMURIUM, Strain/Indicator: TA98, Metabolic Activation: NONE, Method: PREINCUBATION) is reported as “active; positive”. The mutagenic call (Test System: AMES SALMONELLA TYPHIMURIUM, Strain/Indicator: TA100(NR), Metabolic Activation: NONE, Method: PREINCUBATION) was “active; positive”, the mutagenic call (Test System: AMES SALMONELLA TYPHIMURIUM, Strain/Indicator: TA100(NR), Metabolic Activation: RAT, LIVER, S-9, AROCLOR 1254, Method: PREINCUBATION) was “active; positive” and the mutagenic call (Test System: AMES SALMONELLA TYPHIMURIUM, Strain/Indicator: TA100, Metabolic Activation: NONE, Method: PREINCUBATION) was “active; positive”. For the same molecule, the mutagenic call [1] was “active; positive”, the mutagenic call (Test System: AMES SALMONELLA TYPHIMURIUM, Strain/Indicator: TA104, Metabolic Activation: NONE, Method: STANDARD PLATE) was “active; positive” and the mutagenic call (Test System: AMES SALMONELLA TYPHIMURIUM, Strain/Indicator: TA4001, Metabolic Activation: NONE, Method: STANDARD PLATE) was “inactive; negative”. The mutagenic call (Test System: AMES SALMONELLA TYPHIMURIUM, Strain/Indicator: TA4006, Metabolic Activation: NONE, Method: STANDARD PLATE) was “active; positive”, the mutagenic call (Test System: AMES SALMONELLA TYPHIMURIUM, Strain/Indicator: TA7001, Metabolic Activation: NONE, Method: STANDARD PLATE) was “active; positive” and the mutagenic call (Test System: AMES SALMONELLA TYPHIMURIUM, Strain/Indicator: TA7001, Metabolic Activation: RAT LIVER S-9, AROCLOR 1254, Method: STANDARD PLATE) was “inactive; negative”. For the same molecule, the mutagenic call (Test System: AMES SALMONELLA TYPHIMURIUM, Strain/Indicator: TA7002, Metabolic Activation: NONE, Method: STANDARD PLATE) was “active; positive”, the mutagenic call (Test System: AMES SALMONELLA TYPHIMURIUM, Strain/Indicator: TA7003, Metabolic Activation: NONE, Method: STANDARD PLATE) was “active; positive” and the mutagenic call (Test System: AMES SALMONELLA TYPHIMURIUM, Strain/Indicator: TA7003, Metabolic Activation: RAT LIVER S-9, AROCLOR 1254, Method: STANDARD PLATE) was “inactive; negative”. The mutagenic call (Test System: AMES SALMONELLA TYPHIMURIUM, Strain/Indicator: TA7004, Metabolic Activation: NONE, Method: STANDARD PLATE) was “active; positive”, the mutagenic call (Test System: AMES SALMONELLA TYPHIMURIUM, Strain/Indicator: TA7004, Metabolic Activation: RAT LIVER S-9, AROCLOR 1254, Method: STANDARD PLATE) was “inactive; negative” and the mutagenic call (Test System: AMES SALMONELLA TYPHIMURIUM, Strain/Indicator: TA7005, Metabolic Activation: NONE, Method: STANDARD PLATE) was “active; positive”. For the same molecule, the mutagenic call (Test System: AMES SALMONELLA TYPHIMURIUM, Strain/Indicator: TA7006, Metabolic Activation: NONE, Method: STANDARD PLATE) was “inactive; negative” and the mutagenic call (Test System: CHINESE HAMSTER OVARY, Strain/Indicator: CHO-K1-BH4 (HGPRT), Metabolic Activation: NONE, Method: SUSPENSION/PLATE) was “active; positive”.

With O=C(O)c1cn(C2CC2)c2c(Cl)c(N3C[C@@H]4CCCN[C@@H]4C3)c(F)cc2c1=O the mutagenic call (Test System: CHINESE HAMSTER V-79, Strain/Indicator: V-79 (HGPRT)/6-THIOGUANINE, Metabolic Activation: NONE, Method: STANDARD PLATE) was “active; positive” and the mutagenic call (Test System: CHINESE HAMSTER, Strain/Indicator: V-79(HPRT)/6-THIOGUANINE, Metabolic Activation: NONE, Method: SUSPENSION/PLATE) was “active; positive”.

For CC(=O)Nc1ccc(OC(=O)c2ccccc2OC(C)=O)cc1, the mutagenic call (Test System: AMES SALMONELLA TYPHIMURIUM, Strain/Indicator: TA97, Metabolic Activation: NONE, Method: STANDARD PLATE) was “inactive; negative”, the mutagenic call (Test System: AMES SALMONELLA TYPHIMURIUM, Strain/Indicator: TA97, Metabolic Activation: RAT, LIVER, S-9, AROCLOR 1254, Method: STANDARD PLATE) was “inactive; negative” and the mutagenic call [2] was “inactive; negative”. The mutagenic call [3] was “inactive; negative”, the mutagenic call [1] was “inactive; negative” and the mutagenic call [4] was “inactive; negative”. For the same molecule, the mutagenic call (Test System: AMES SALMONELLA TYPHIMURIUM, Strain/Indicator: TA1535, Metabolic Activation: NONE, Method: STANDARD PLATE) was “inactive; negative”, the mutagenic call (Test System: AMES SALMONELLA TYPHIMURIUM, Strain/Indicator: TA1535, Metabolic Activation: RAT, LIVER, S-9, AROCLOR 1254, Method: STANDARD PLATE) was “inactive; negative” and the mutagenic call [5] was “inactive; negative”. For the same molecule, the mutagenic call (Test System: AMES SALMONELLA TYPHIMURIUM, Strain/Indicator: TA1537, Metabolic Activation: RAT, LIVER, S-9, AROCLOR 1254, Method: STANDARD PLATE) was “inactive; negative”, the mutagenic call [6] was “inactive; negative” and the mutagenic call (Test System: AMES SALMONELLA TYPHIMURIUM, Strain/Indicator: TA1538, Metabolic Activation: RAT, LIVER, S-9, AROCLOR 1254, Method: STANDARD PLATE) was “inactive; negative”.

O[C@@H]1C=Cc2c(cc3ccc4cccc5c6ccccc6c2c3c45)[C@H]1O was tested, and the mutagenic call (Test System: CHINESE HAMSTER V-79, Strain/Indicator: V-79 (HPRT)/6-THIOGUANINE, Metabolic Activation: HUMAN MAMMARY CARCINOMA MCF-7 CELLS) was “active; positive” and the mutagenic call (Test System: CHINESE HAMSTER V-79, Strain/Indicator: V-79, Metabolic Activation: RAT, LIVER, S-9, AROCLOR 1254) was “active; positive”.

With Cc1ccc2[nH]c3c(C)ccc(C)c3c2c1 the mutagenic call [2] was “inactive; negative”, the mutagenic call (Test System: AMES SALMONELLA TYPHIMURIUM, Strain/Indicator: TA98, Metabolic Activation: RAT LIVER S-9, AROCLOR 1254, Method: STANDARD PLATE) was “active; positive” and the mutagenic call [1] was “inactive; negative”. For the same molecule, the mutagenic call (Test System: AMES SALMONELLA TYPHIMURIUM, Strain/Indicator: TA100, Metabolic Activation: RAT LIVER S-9, AROCLOR 1254, Method: STANDARD PLATE) was “inactive; negative”.

For COP(=S)(OC)Oc1ccc(N)c(C)c1, the mutagenic call [2] was “inactive; negative”, the mutagenic call [3] was “inactive; negative” and the mutagenic call [1] was “inactive; negative”. For the same molecule, the mutagenic call [4] was “active; positive”.

For C1=Cc2ccc3nc4ccc5ccccc5c4cc3c2CC1, the mutagenic call (Test System: AMES SALMONELLA TYPHIMURIUM, Strain/Indicator: TA98, Metabolic Activation: GUINEA PIG, LIVER, S-9, 3-METHYLCHOLANTHRENE, Method: STANDARD PLATE) was “active; positive” and the mutagenic call (Test System: AMES SALMONELLA TYPHIMURIUM, Strain/Indicator: TA100, Metabolic Activation: GUINEA PIG, LIVER, S-9, 3-METHYLCHOLANTHRENE, Method: STANDARD PLATE) was “active; positive”.

With O=NN(c1ccc([N+](=O)[O-])cc1)C1OC[C@H](O)[C@H](O)[C@H]1O (stereo partly drawn) the mutagenic call [1] was “active; positive”.

With Clc1ccc(C(c2ccccc2Cl)C(Cl)(Cl)Cl)cc1 (stereo not drawn) the mutagenic call (End Point: IN VIVO CHROMOSOMAL ABERRATIONS, Test System: MAMMARY GLAND CELLS USING DUAL PROBE FISH, Species: RAT, Strain/Sex: SPRAGUE-DAWLEY/FEMALE, Route: SUBCUTANEOUS INJECTION) was “active; positive (polyploidy)” and the mutagenic call (End Point: IN VIVO MICRONUCLEUS, Test System: MAMMARY GLAND CELLS, Species: RAT, Strain/Sex: SPRAGUE-DAWLEY/FEMALE, Route: SUBCUTANEOUS INJECTION) was “inactive; negative”.

Nc1ccc2c(c1)[nH]c1ccccc12 was tested, and the mutagenic call [2] was “active; positive”, the mutagenic call (Test System: AMES SALMONELLA TYPHIMURIUM, Strain/Indicator: TA98, Metabolic Activation: RAT, LIVER, S-9, PHENOBARBITAL, Method: STANDARD PLATE) was “active; positive” and the mutagenic call [1] was “inactive; negative”. For the same molecule, the mutagenic call (Test System: AMES SALMONELLA TYPHIMURIUM, Strain/Indicator: TA100, Metabolic Activation: RAT, LIVER, S-9, PHENOBARBITAL, Method: STANDARD PLATE) was “active; positive”, the mutagenic call [5] was “inactive; negative” and the mutagenic call [6] was “active; positive”. The mutagenic call (Test System: AMES SALMONELLA TYPHIMURIUM, Strain/Indicator: TA1538, Metabolic Activation: RAT, LIVER, S-9, PHENOBARBITAL, Method: STANDARD PLATE) was “active; positive”, the mutagenic call (Test System: AMES SALMONELLA TYPHIMURIUM, Strain/Indicator: TA1977, Metabolic Activation: NONE, Method: STANDARD PLATE) was “inactive; negative” and the mutagenic call (Test System: AMES SALMONELLA TYPHIMURIUM, Strain/Indicator: TA1977, Metabolic Activation: RAT, LIVER, S-9, PHENOBARBITAL, Method: STANDARD PLATE) was “inactive; negative”.
